Like-named read-outs stand apart in the source and are kept apart here.
Key:
human NAMPT = human NAMPT (Homo sapiens (Human), UniProt P43490); experiment: NMN fluorescence biochemical assay (human recombinant NAMPT enzyme assay)
Outline: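 Activation of recombinant human NAMPT (6 nM) was tested with 2.5 mM ATP, 20 μM PRPP and 150 μM nicotinamide in 50 mM HEPES pH 7.2 for 60 min at ambient temperature. NMN was derivatized with acetophenone/KOH/formic acid and read by fluorescence (355/460 nm) after 40 min.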

[1] = Brain tissue binding, mouse; type: in vitro ADME
[2] = Plasma protein binding (PPB), mouse; type: in vitro ADME
[3] = test system: MDCK-MDR1 cells (P-gp, MDR1); experiment: MDR1-MDCK bidirectional permeability assay; conditions: A to B
Protocol: (§1) A bidirectional permeability assay using Madin Darby canine kidney cells expressing multi-drug resistance gene 1 (MDCK-MDR1) is routinely used to evaluate discovery compounds' BBB permeability and drug efflux toward the advancement of discovery compounds with brain penetration.
(§2) MDCK-MDR1 Cells (NIH cell line) were obtained from the National Institutes of Health. […] Cell culture medium was replaced every other day, beginning no later than 24 hours after the initial plating. […] The dosing solution concentration was 1 μM for the test article in the assay buffer. Cell monolayers were dosed on the apical side (A-to-B) or basolateral side (B-to-A) and incubated at 37° C. under an atmosphere of 5% CO2 in a humidified incubator. Samples were taken from the donor and receiver chambers at 120 minutes. Each determination was performed in duplicate. After the 120 min transport period, the flux of lucifer yellow was also measured for each monolayer to ensure no damage was inflicted to the cell monolayers during the transport period. All samples were assayed by LC-MS/MS (Waters XSelect HSS T3 C18, 2.5 m, 2.1×50 mm) using electrospray ionization with 0.1% formic acid in water (mobile phase A) and 0.1% formic acid in acetonitrile (mobile phase B) as mobile phases. The apparent permeability coefficient (Papp), in units of cm per second, was calculated for MDCK-MDR1 Cells (NIH cell line) drug transport assays using the following equation:
(§3) Where VA is the volume (in mL) in the acceptor well, Area is the surface area of the membrane (0.143 cm^2 for Transwell-96 Well Permeable Supports), and time is the total transport time in seconds.
(§4) The leakage of Lucifer Yellow (LY), in unit of percentage (%), can be calculated using the following equation:
(§5) LY leakage of <1% is acceptable to indicate the well-qualified MDCK-MDR1(NIH) monolayer.

P-gp (MDR1) [4] = experiment: MDR1-MDCK bidirectional permeability assay; conditions: dog, MDCK-MDR1, pH 7.4, Efflux ratio
Protocol: as §1, §2, §3, §4, §5

[5] = Brain exposure assay in mice (brain-to-plasma ratio after oral administration); type: in vivo; conditions: mouse, 100 mg/kg; for concentration at 6 h / Kp at 2 h / Kp uu at 2 h / Kp at 6 h / Kp uu at 6 h: male, C57BL/6JNIFDC, oral; for Kp at 2 h / Kp at 6 h: total brain-plasma concentration ratio; for Kp uu at 2 h / Kp uu at 6 h: unbound brain-to-plasma partition coefficient; for Kp at 2 h / Kp uu at 2 h / Cbrain, free (μM) / Cbrain, total (μM) / Cplasma, free (μM) / Cplasma, total (μM): 2 hr
Protocol: This protocol was used to determine the brain-to-plasma ratio in vivo in mice post oral administration of test compounds. Mice (C57BL/6JNIFDC, male, non-fasted, 18-30 g body weight, 3 mice for each timepoint) were dosed orally at 100 mg/kg (10 mg test compound/mL formulation, 10 mL dosing volume/kg) with plasma and brain tissues obtained at 2- and 6-hours post-administration. The oral dosing formulation composition used was 10% N,N-dimethylacetamide:20% propylene glycol:70% of 40% aqueous 2-hydroxypropyl-β-cyclodextrin.
For the isolation of mouse plasma from dosed animals, approximately 0.3 mL blood was collected by orbital sinus bleed and centrifuged (4000 g, 5 minutes, 4° C.). The plasma samples were stored frozen at −75±15° C. until further processing.
For the isolation of brain tissue from dosed animals, whole brain tissues were collected from euthanized and fully exsanguinated mice. The tissues were quickly rinsed with distilled water, dried with absorbent paper, followed by rapid freezing on dry ice and then storage at −75±15° C. until further processing. Brain tissue samples obtained from frozen whole brain were weighed and the samples homogenized using three equivalents of distilled water (3 mL per gram of brain tissue).
Standard and quality control samples were prepared by adding 3 μL of the test compound dimethyl sulfoxide (DMSO) stock solutions to blank plasma (30 μL) and blank brain homogenate aliquots (30 μL). Standard curves for brain and plasma were generated over a 1 to 1,000 ng/g test compound concentration range. For the extraction of test compound from plasma and brain tissue homogenate samples, a solution of acetonitrile containing internal standard ([…]) was added to 30 μL of samples with added 3 μL of DMSO. The samples then were vortex-mixed followed by centrifugation at 4000 rpm (4° C., 15 minutes). The resultant supernatants were diluted 5-fold with distilled water. Finally, 10 μL of the diluted supernatant was injected onto an LC-MS/MS instrument for quantitative analysis of test compound.
The brain-to-plasma ratio was calculated by the relationship: Brain-to-plasma ratio=Cbrain/Cplasma; where Cb is the concentration in brain tissue and Cp is the concentration in plasma at the corresponding timepoint.
Kp is the total brain-plasma concentration ratio; Kp=Cbrain/Cplasma.
Kp, uu is the unbound brain-to-plasma partition coefficient (Kp,uu,brain). It is a measure of the extent of the distribution equilibrium of a compound between the unbound (free) fractions in brain and in blood plasma; Kp, uu brain=Cu, brain/Cu, plasma.

[6] = test system: MDCK-MDR1 cells (P-gp, MDR1); conditions: dog, MDCK-MDR1, 120 min, 1 μM, pH 7.4
Protocol: as §1, §2, §3, §4, §5

P-gp (MDR1) [7] = experiment: in vitro; conditions: dog, MDCK-MDR1, pH 7.4, Efflux ratio
Protocol: as §1, §2, §3, §4, §5

[8] = plasma, read-out: Cplasma, free
[9] = plasma, read-out: Cplasma, total

human NAMPT, sequence (P43490 whole entry): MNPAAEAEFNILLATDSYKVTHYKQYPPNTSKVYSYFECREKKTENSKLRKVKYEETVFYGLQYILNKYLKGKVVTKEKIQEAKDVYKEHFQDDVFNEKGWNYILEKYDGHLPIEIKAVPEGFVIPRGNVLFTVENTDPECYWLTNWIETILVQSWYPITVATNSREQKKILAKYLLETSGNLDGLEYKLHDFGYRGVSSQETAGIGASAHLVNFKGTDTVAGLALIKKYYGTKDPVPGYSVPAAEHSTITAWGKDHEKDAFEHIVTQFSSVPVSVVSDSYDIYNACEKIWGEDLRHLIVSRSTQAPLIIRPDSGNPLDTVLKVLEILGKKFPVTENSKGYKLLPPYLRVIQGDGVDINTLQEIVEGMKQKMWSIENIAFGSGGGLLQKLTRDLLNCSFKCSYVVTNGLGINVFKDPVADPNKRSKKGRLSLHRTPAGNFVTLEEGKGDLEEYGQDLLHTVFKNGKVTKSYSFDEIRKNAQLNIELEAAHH

fraction unbound ([1]; mouse, brain tissue)	fraction unbound ([2]; mouse, plasma)	PappAB [3]	efflux ratio at 120 min, 1 μM (P-gp (MDR1) [4])	SMILES	AC1.4 Human (human NAMPT) [µM]	EC50 (human NAMPT) [µM]	concentration at 6 h ([5]; brain, read-out: Cbrain, free) [nM]	concentration at 6 h ([5]; brain, read-out: Cbrain, total) [nM]	concentration at 6 h [5, 8] [nM]	concentration at 6 h [5, 9] [nM]	Kp at 2 h [5]	Kp uu at 2 h [5]	Kp at 6 h [5]	Kp uu at 6 h [5]	Cbrain, free (μM) [5]	Cbrain, total (μM) [5]	Cplasma, free (μM) [5]	Cplasma, total (μM) [5]	fraction unbound [1]	fraction unbound [2]	also measured
0.053	0.037	7.68	1.99	CN(C)S(=O)(=O)N1CCC(Cc2ccc(NC(=O)OCc3cnco3)cc2)CC1 [Compound 27, oxazol-5-ylmethyl (4-((1-(N,N-dimethylsulfamoyl)piperidin-4-yl)methyl)phenyl)carbamate]	0.36	5.25	70	1500	220	5900	0.29	0.41	0.25	0.32	0.64, μM	12.0, μM	1.55, μM	42.1, μM	–	–	–
–	–	–	–	O=C(Nc1ccc(CC2CC3CCC(C2)N3S(=O)(=O)C2CC2)cc1)OCc1cnco1 (stereo not drawn) [Compound 395, oxazol-5-ylmethyl (4-((8-(cyclopropylsulfonyl)-8-azabicyclo[3.2.1]octan-3-yl)methyl)phenyl)carbamate]	0.12	3.2	–	–	–	–	–	–	–	–	–	–	–	–	–	–	PappAB [6]: 2.81; efflux ratio at 120 min, 1 μM (P-gp (MDR1) [7]): 5.02
–	–	–	–	CN(C)S(=O)(=O)N1CC2(CC(Cc3ccc(NC(=O)OCc4cnco4)cc3F)C2)C1 [Compound 399, oxazol-5-ylmethyl (4-((2-(N,N-dimethylsulfamoyl)-2-azaspiro[3.3]heptan-6-yl)methyl)-3-fluorophenyl)carbamate]	0.15	3.88	140	11500	270	26800	0.44	0.52	0.43	0.52	0.23, μM	19.5, μM	0.44, μM	44, μM	0.012	0.01	–
–	–	–	–	CN(C)C(=O)N1CC2(CC(c3ccc(NC(=O)OCc4cnco4)cc3F)C2)C1 [Compound 400, oxazol-5-ylmethyl (4-(2-(dimethylcarbamoyl)-2-azaspiro[3.3]heptan-6-yl)-3-fluorophenyl)carbamate]	0.11	15.4	80	1400	140	3100	0.43	0.53	0.43	0.57	0.31, μM	5.8, μM	0.58, μM	13.5, μM	0.054	0.043	–
0.033	0.022	3.53	5.74	CN(C)C(=O)N1CCC(Cc2ccc(NC(=O)OCc3cnco3)cc2F)CC1 [Compound 449, oxazol-5-ylmethyl (4-((1-(dimethylcarbamoyl)piperidin-4-yl)methyl)-3-fluorophenyl)carbamate]	0.10	2.93	280	8400	390	18000	0.42	0.64	0.47	0.72	0.83, μM	25.0, μM	1.30, μM	59.4, μM	–	–	–

SMILES	fraction unbound ([1]; mouse, brain tissue)	fraction unbound ([2]; mouse, plasma)	PappAB [3]	efflux ratio at 120 min, 1 μM (P-gp (MDR1) [4])	AC1.4 Human (human NAMPT) [µM]	EC50 (human NAMPT) [µM]	concentration at 6 h ([5]; brain, read-out: Cbrain, free) [nM]	concentration at 6 h ([5]; brain, read-out: Cbrain, total) [nM]	concentration at 6 h [5, 8] [nM]	concentration at 6 h [5, 9] [nM]	Kp at 2 h [5]	Kp uu at 2 h [5]	Kp at 6 h [5]	Kp uu at 6 h [5]	Cbrain, free (μM) [5]	Cbrain, total (μM) [5]	Cplasma, free (μM) [5]	Cplasma, total (μM) [5]	fraction unbound [1]	fraction unbound [2]	also measured
CN(C)C(=O)N1CCC[C@H](c2ccc(NC(=O)OCc3cnco3)cc2)C1 [Compound 376, oxazol-5-ylmethyl (R)-(4-(1-(dimethylcarbamoyl)piperidin-3-yl)phenyl)carbamate]	0.132	0.024	8.06	4.11	0.06	2.02	1000	7500	1090	45500	0.16	0.89	0.16	0.92	2.2, μM	16.5, μM	2.48, μM	104, μM	–	–	–

— patent publication US20240279215A1 (Cytokinetics, Incorporated, priority 2022, published 2024)
